US10358435B2, “Triazolyl pyrimidinone compounds as PDE2 inhibitors” (Merck Sharp & Dohme Corp., priority 2015, dated 2019)

biological target: human PDE2A1 (Homo sapiens (Human), UniProt O00408); experiment: IMAP fluorescence polarization assay, human PDE2A1 (PDE selectivity panel); type: biochemical; conditions: not given
Protocol: The activity of the compounds in accordance with the present invention as PDE2 inhibitors may be readily determined using a fluorescence polarization (FP) methodology (Huang, W., et al., J. Biomol Screen, 2002, 7: 215).
Dose-inhibition profiles for each compound were characterized by fitting the mP data to a four-parameter equation given below.
Selectivity for PDE2, as compared to other PDE families, was assessed using the IMAP® technology. Human PDE10A2 enzyme was prepared from cytosolic fractions of transiently transfected HEK cells. All other PDE's were GST Tag human enzyme expressed in insect cells and were obtained from BPS Bioscience (San Diego, Calif.): PDE1A (Cat#60010), human PDE2A1 (Cat#60020), PDE3A (Cat#60030), PDE4A1A (Cat#60040), PDE5A1 (Cat#60050), PDE6C (Cat#60060), PDE7A (Cat#60070), PDE8A1 (Cat#60080), PDE9A2 (Cat#60090), PDE11A4 (Cat#60110).
Assays for PDE 1 through 11 were performed in parallel at room temperature in 384-well microtiter plates with an incubation volume of 20.2 μL. Solutions of test compounds were prepared in DMSO and serially diluted with DMSO to yield 30 μL of each of ten solutions differing by 3-fold in concentration, at 32 serial dilutions per plate. […] A Labcyte POD 810 (Labcyte, Sunnyvale, Calif.) was used to dispense 200 nL from each well of the titration plate to make eleven copies of the assay plate for each titration, one copy for each PDE enzyme. A solution of each enzyme (dilution from aliquots, sufficient to produce 20% substrate conversion) and a separate solution of FAM-labeled cAMP or FAM-labeled cGMP from Molecular Devices (Sunnyvale, Calif., product # R7506 or cGMP#R7508), at a final concentration of 50 nM were made in the assay buffer (10 mM Tris HCl, pH 7.2, 10 mM MgCl2, 0.05% NaN3 0.01% Tween-20, and 1 mM DTT). Note that the substrate for PDE2 is 50 nM FAM cAMP containing 1000 nM of cGMP. The enzyme and the substrate were then added to the assay plates in two consecutive additions of 10 μL and then shaken to mix. The reaction was allowed to proceed at room temperature for 60 minutes. A binding solution was then made from the kit components, comprised of 80% Solution A, 20% Solution B and binding reagent at a volume of 1/600 the total binding solution. The enzymatic reaction was stopped by addition of 60 μL of the binding solution to each well of the assay plate. The plates were sealed and shaken for 10 seconds. The plates were incubated at room temperature for one hour, then the parallel and perpendicular fluorescence was measured using a Tecan Genios Pro plate reader (Tecan, Switzerland). The apparent inhibition constants for the compounds against all 11 PDE's was determined from the parallel and perpendicular fluorescent readings as described for PDE10 FP assay using the following apparent KM values for each enzyme and substrate combination: PDE1A (FAM cGMP) 70 nM, human PDE2A1 (FAM cAMP) 10,000 nM, PDE3A (FAM cAMP) 50 nM, PDE4A1A (FAM cAMP) 1500 nM, PDE5A1 (FAM cGMP) 400 nM, PDE6C (FAM cGMP) 700 nM, PDE7A (FAM cAMP) 150 nM, PDE8A1 (FAM cAMP) 50 nM, PDE9A2 (FAM cGMP) 60 nM, PDE10A2 (FAM cAMP) 150 nM, PDE11A4 (FAM cAMP) 1000 nM. The intrinsic PDE2 inhibitory activity of a compound which may be used in accordance with the present invention may be determined by these assays.

Sequence of human PDE2A1 (O00408 other isoform, or with tags, fused parts or gaps): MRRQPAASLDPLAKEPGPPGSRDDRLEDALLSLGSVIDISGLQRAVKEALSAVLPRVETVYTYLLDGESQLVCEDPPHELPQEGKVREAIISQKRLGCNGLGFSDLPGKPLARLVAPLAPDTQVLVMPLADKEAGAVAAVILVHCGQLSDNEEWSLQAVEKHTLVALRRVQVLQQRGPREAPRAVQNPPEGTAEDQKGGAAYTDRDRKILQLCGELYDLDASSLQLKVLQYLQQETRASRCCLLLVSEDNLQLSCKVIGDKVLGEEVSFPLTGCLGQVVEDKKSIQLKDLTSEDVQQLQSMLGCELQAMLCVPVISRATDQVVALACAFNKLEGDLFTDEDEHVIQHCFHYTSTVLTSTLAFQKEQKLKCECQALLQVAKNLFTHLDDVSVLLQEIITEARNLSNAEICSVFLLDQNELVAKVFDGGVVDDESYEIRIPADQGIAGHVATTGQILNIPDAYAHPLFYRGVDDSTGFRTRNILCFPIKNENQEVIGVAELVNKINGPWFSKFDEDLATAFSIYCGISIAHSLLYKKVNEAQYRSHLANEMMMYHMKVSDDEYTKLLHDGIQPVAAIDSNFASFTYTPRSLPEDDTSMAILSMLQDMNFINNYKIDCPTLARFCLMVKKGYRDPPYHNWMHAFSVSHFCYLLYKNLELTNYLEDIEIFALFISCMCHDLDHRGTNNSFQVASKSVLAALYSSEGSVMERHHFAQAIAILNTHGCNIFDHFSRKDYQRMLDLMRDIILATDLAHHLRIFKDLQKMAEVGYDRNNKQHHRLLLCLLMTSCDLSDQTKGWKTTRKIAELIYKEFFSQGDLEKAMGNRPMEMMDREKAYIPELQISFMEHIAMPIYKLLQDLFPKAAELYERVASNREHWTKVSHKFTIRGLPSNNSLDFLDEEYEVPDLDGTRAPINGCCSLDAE

**Q.** With `Cc1nc(-c2nnn([C@H](C)c3ccc(C(F)(F)F)cc3Cl)c2C)cc(=O)[nH]1` (mixture of isomers) [Example 44, (R)- and (S)-6-(1-(1-(2-Chloro-4-(trifluoromethyl)phenyl)-ethyl)-5-methyl-1H-1,2,3-triazol-4-yl)-2-methylpyrimidin-4(3H)-one] as the molecule, how does the inhibition at 3 µM read?
**A.** 44%

**Q.** Which inhibition at 3 µM does the source give for `Cc1nc(-c2nnn3c2CCC[C@H]3c2ccc(C(F)(F)F)cc2)cc(=O)[nH]1` (mixture of isomers) [Example 47, (R)- and (S)-2-Methyl-6-(7-(4-(trifluoromethyl)phenyl)-4,5,6,7-tetrahydro-[1,2,3]triazolo[1,5-a]pyridin-3-yl)pyrimidin-4(3H)-one] here?
**A.** 48%

**Q.** How did the inhibition at 3 µM turn out when `Cc1nc(-c2nnc3n2CCC[C@H]3c2ccc(C(F)(F)F)cc2)cc(=O)[nH]1` (mixture of isomers) [Example 71, (R)- and (S)-2-Methyl-6-(8-(4-(trifluoromethyl)phenyl)-5,6,7,8-tetrahydro-[1,2,4]triazolo[4,3-a]pyridin-3-yl)pyrimidin-4(3H)-one] was run?
**A.** 27%

same assay, conditions: FAM cAMP 50 nM with 1000 nM cGMP

**Q.** How did the Ki turn out when `Cc1nc(-c2cnn([C@H](C)c3ccc(C(F)(F)F)cc3Cl)n2)cc(=O)[nH]1` (single isomer, unassigned) [Example 1] was run?
**A.** 36.3 nM

**Q.** Which Ki does the source give for `Cc1nc(-c2cnn([C@H](C)c3ccc(C(F)(F)F)cc3Cl)n2)cc(=O)[nH]1` (single isomer, unassigned) [Example 2] here?
**A.** ~1300 nM

**Q.** With `Cc1nc(-c2cnn(C(C)c3ccc(C(F)(F)F)cc3F)n2)cc(=O)[nH]1` (single isomer, unassigned) [Example 3, (R)- or (S)-6-(2-(1-(2-fluoro-4-(trifluoromethyl)phenyl)ethyl)-2H-1,2,3-triazol-4-yl)-2-metylpyrimidin-4(3H)-one] as the molecule, how does the Ki read?
**A.** 112 nM

**Q.** For `Cc1nc(-c2cnn(C(C)c3ccc(C(F)(F)F)cc3F)n2)cc(=O)[nH]1` (single isomer, unassigned) [Example 4, (S)- or (R)-6-(2-(1-(2-fluoro-4-(trifluoromethyl)phenyl)ethyl)-2H-1,2,3-triazol-4-yl)-2-metylpyrimidin-4(3H)-one], which Ki is on record?
**A.** 1030 nM

**Q.** For `Cc1nc(-c2cnn(C(C)c3ccc(C(F)(F)F)cc3C)n2)cc(=O)[nH]1` (single isomer, unassigned) [Example 5, (R)- or (S)-2-methyl-6-(2-(1-(2-methyl-4-(trifluoromethyl)phenyl)ethyl)-2H-1,2,3-triazol-4-yl)pyrimidin-4(3H)-one], which Ki is on record?
**A.** 52.2 nM

**Q.** Which Ki does the source give for `Cc1nc(-c2cnn(C(C)c3ccc(C(F)(F)F)cc3C)n2)cc(=O)[nH]1` (single isomer, unassigned) [Example 6, (S)- or (R)-2-methyl-6-(2-(1-(2-methyl-4-(trifluoromethyl)phenyl)ethyl)-2H-1,2,3-triazol-4-yl)pyrimidin-4(3H)-one] here?
**A.** ~1900 nM

**Q.** Which Ki does the source give for `CCc1ccc(C(C)n2ncc(-c3cc(=O)[nH]c(C)n3)n2)c(Cl)c1` (single isomer, unassigned) [Example 7, (R)- or (S)-6-(2-(1-(2-chloro-4-ethylphenyl)ethyl)-2H-1,2,3-triazol-4-yl)-2-methylpyrimidin-4(3H)-one] here?
**A.** 60.9 nM

**Q.** For `CCc1ccc(C(C)n2ncc(-c3cc(=O)[nH]c(C)n3)n2)c(Cl)c1` (single isomer, unassigned) [Example 8, (S)- or (R)-6-(2-(1-(2-chloro-4-ethylphenyl)ethyl)-2H-1,2,3-triazol-4-yl)-2-methylpyrimidin-4(3H)-one], which Ki is on record?
**A.** ~1550 nM

**Q.** `Cc1nc(-c2cn([C@H](C)c3ccc(C(F)(F)F)cc3C)nn2)cc(=O)[nH]1` (single isomer, unassigned) [Example 10] was tested. Which Ki did it give?
**A.** 132 nM

**Q.** With `CCc1ccc(C(C)n2cc(-c3cc(=O)[nH]c(C)n3)nn2)c(Cl)c1` (single isomer, unassigned) [Example 20, (S)- or (R)-6-(1-(1-(2-chloro-4-ethylphenyl)ethyl)-1H-1,2,3-triazol-4-yl)-2-methylpyrimidin-4(3H)-one] as the molecule, how does the Ki read?
**A.** 46.7 nM

**Q.** How did the Ki turn out when `Cc1nc(-c2cn(C(C)c3ccc(C(F)(F)F)c(F)c3F)nn2)cc(=O)[nH]1` (single isomer, unassigned) [Example 22, (S)- or (R)-6-(1-(1-(2,3-difluoro-4-(trifluoromethyl)phenyl)ethyl)-1H-1,2,3-triazol-4-yl)-2-methylpyrimidin-4(3H)-one] was run?
**A.** 17.7 nM

**Q.** For `Cc1nc(-c2cn(C(C)c3cc(F)c(C(F)(F)F)cc3F)nn2)cc(=O)[nH]1` (single isomer, unassigned) [Example 23, (R)- or (S)-6-(1-(1-(2,5-difluoro-4-(triufluoromethyl)phenyl)ethyl)-1H-1,2,3-triazol-4-yl)-2-methylpyrimidin-4(3H)-one], which Ki is on record?
**A.** 203 nM

**Q.** With `Cc1nc(-c2cn(C(C)c3cc(F)c(C(F)(F)F)cc3F)nn2)cc(=O)[nH]1` (single isomer, unassigned) [Example 24, (S)- or (R)-6-(1-(1-(2,5-difluoro-4-(triufluoromethyl)phenyl)ethyl)-1H-1,2,3-triazol-4-yl)-2-methylpyrimidin-4(3H)-one] as the molecule, how does the Ki read?
**A.** 38.8 nM

**Q.** Which Ki does the source give for `Cc1nc(-c2cn(C(C)c3ccc(C4CC4)cc3Cl)nn2)cc(=O)[nH]1` (single isomer, unassigned) [Example 25, (R)- or (S)-6-(1-(1-(2-chloro-4-cyclopropylphenyl)ethyl)-1H-1,2,3-triazol-4-yl)-2-methylpyrimidin-4(3H)-one] here?
**A.** 58.4 nM

**Q.** How did the Ki turn out when `Cc1nc(-c2cn(C(C)c3ccc(C4CC4)cc3Cl)nn2)cc(=O)[nH]1` (single isomer, unassigned) [Example 26, (S)- or (R)-6-(1-(1-(2-chloro-4-cyclopropylphenyl)ethyl)-1H-1,2,3-triazol-4-yl)-2-methylpyrimidin-4(3H)-one] was run?
**A.** 3.2 nM

**Q.** `Cc1nc(-c2cn(C(C)c3ccc(C(F)(F)F)cc3F)nn2)cc(=O)[nH]1` (single isomer, unassigned) [Example 27, (R)- or (S)-6-(1-(1-(2-fluoro-4-(trifluoromethyl)phenyl)ethyl)-1H-1,2,3-triazol-4-yl)-2-methylpyrimidin-4(3H)-one] was tested. Which Ki did it give?
**A.** 46.6 nM

**Q.** How did the Ki turn out when `Cc1nc(-c2cn([C@@H](C)c3ccc(C(F)(F)F)cc3Cl)nn2)cc(=O)[nH]1` (single isomer, unassigned) [Example 35] was run?
**A.** 41.5 nM

**Q.** How did the Ki turn out when `Cc1nc(-c2cn([C@@H](C)c3ccc(C(F)(F)F)cc3Cl)nn2)cc(=O)[nH]1` (single isomer, unassigned) [Example 36] was run?
**A.** 1.7 nM

**Q.** With `CCC(c1ccc(C(F)(F)F)cc1F)n1cc(-c2cc(=O)[nH]c(C)n2)nn1` (single isomer, unassigned) [Example 37, (R)- or (S)-6-(1-(1-(2-fluoro-4-(trifluoromethyl)phenyl)propyl-1H-1,2,3-triazol-4-yl)-2-methylpyrimidin-4(3H)-one] as the molecule, how does the Ki read?
**A.** 11 nM

**Q.** `CCC(c1ccc(C(F)(F)F)cc1F)n1cc(-c2cc(=O)[nH]c(C)n2)nn1` (single isomer, unassigned) [Example 38, (S)- or (R)-6-(1-(1-(2-fluoro-4-(trifluoromethyl)phenyl)propyl)-1H-1,2,3-triazol-4-yl)-2-methylpyrimidin-4(3H)-one] was tested. Which Ki did it give?
**A.** 10.5 nM

**Q.** `Cc1nc(-c2cn(C(c3ccc(C(F)(F)F)cc3F)C(C)C)nn2)cc(=O)[nH]1` (single isomer, unassigned) [Example 39, (R)- or (S)-6-(1-(1-(2-fluoro-4-(trifluoromethyl)phenyl)-2-methylpropyl)-1H-1,2,3-triazol-4-yl)-2-methylpyrimidin-4(3H)-one] was tested. Which Ki did it give?
**A.** 7.2 nM

**Q.** With `Cc1nc(-c2cn(C(c3ccc(C(F)(F)F)cc3F)C(C)C)nn2)cc(=O)[nH]1` (single isomer, unassigned) [Example 40, (S)- or (R)-6-(1-(1-(2-fluoro-4-(trifluoromethyl)phenyl)-2-methylpropyl)-1H-1,2,3-triazol-4-yl)-2-methylpyrimidin-4(3H)-one] as the molecule, how does the Ki read?
**A.** 22.6 nM
